The text below walks through data of ChEMBL document CHEMBL1201862, “PubChem BioAssay data set” (2004).

Some test systems named below: CAKI-1; SF-295; UACC-62; SF-539; M14; DLD-1; SK-OV-3; UO-31; KM12; SK-MEL-2; OVCAR-4; Malme-3M; HCC 2998; K562; NCI-H460; UACC-257; HL-60; BT-549; T47D; PC-3.
Test in all cases: DTP human tumour cell line panel, 48 h

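Growth conditions: 96-well plates. Treatment: test compound, 48 hours, 5 concentrations. Analysis: linear interpolation between bracketing concentrations; unreached endpoints set to highest concentration. Here, GI50 denotes the concentration required for 50% inhibition of growth.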 The source made the active and inactive calls. No stated cut-off is given here; in the data, active = GI50 up to about 1.1 µM and inactive = higher.

With `O=C(N/C(=C\c1ccc(Oc2ccc(Cl)c(Cl)c2)cc1)c1nc2ccccc2[nH]1)c1ccccc1`, the GI50 was 21 µM (inactive) with CAKI-1; 15.1 µM (inactive) in the assay with SF-295; 13.7 µM (inactive) with UACC-62; 18 µM (inactive) in the assay on SF-539; 19.5 µM (inactive) with M14; 17.7 µM (inactive) in the assay on DLD-1. Also, the GI50 in the assay on SK-OV-3 was 26.2 µM (inactive); with UO-31, 14.1 µM (inactive); in the assay on KM12, 15.3 µM (inactive); in the assay on SK-MEL-2 it was 19.2 µM (inactive); in the assay on OVCAR-4 it was 16.6 µM (inactive); in the assay with Malme-3M, 20.9 µM (inactive). For the same molecule, the figures for the GI50 in the assay with HCC 2998 and in the assay on K562 were 16.4 µM (inactive) and 8.91 µM (inactive), respectively.
In the case of `Cc1csc(CCC(N)C(=O)O)n1` (centres undefined), the GI50 with CAKI-1, with SF-295, with UACC-62, in the assay with SF-539, in the assay on M14 and with DLD-1 was > 100 µM (inactive) throughout. Besides, the GI50 with SK-OV-3, with UO-31, with KM12, in the assay on Malme-3M, in the assay with HCC 2998 and with NCI-H460 was > 100 µM (inactive) each time. Further, the GI50 with UACC-257 and with K562 was > 100 µM (inactive) each time.
With `Nc1nc(-c2ccc3ccccc3c2)cc(-c2cc(-c3ccc4ccccc4c3)nc(N)n2)n1`, the GI50 in the assay with HL-60, in the assay on CAKI-1, in the assay with SF-295, in the assay with UACC-62, in the assay with SF-539 and with M14 was > 100 µM (inactive) each time. The GI50 in the assay on SK-OV-3, in the assay with BT-549, in the assay on UO-31, with KM12, in the assay with T47D and in the assay with PC-3 was > 100 µM (inactive) in each case. For the same molecule, the GI50 with SK-MEL-2, in the assay on OVCAR-4, in the assay with Malme-3M, with HCC 2998, in the assay on NCI-H460 and in the assay with UACC-257 was > 100 µM (inactive) in each case. Further, the GI50 in the assay on K562 is > 100 µM (inactive).
Consider `CCC(CC)n1c(C)nc2c1C(=O)c1ccccc1C2=O`, for which the GI50 was 10.7 µM (inactive) in the assay on HL-60; 39.4 µM (inactive) in the assay with SF-295; 10.3 µM (inactive) in the assay on UACC-62; 34 µM (inactive) with SF-539; 63.1 µM (inactive) in the assay with M14; 24.3 µM (inactive) with DLD-1. Moreover, the GI50 with SK-OV-3 was > 100 µM (inactive); in the assay on UO-31 it was 19.5 µM (inactive); with KM12, 36.9 µM (inactive); with SK-MEL-2 it was 27.6 µM (inactive); in the assay with OVCAR-4, 40.7 µM (inactive); with Malme-3M, 26.1 µM (inactive). Also, the GI50 was 77.4 µM (inactive) with HCC 2998, 20.7 µM (inactive) in the assay on NCI-H460, 24 µM (inactive) with UACC-257 and 21.1 µM (inactive) in the assay with K562.
With `CC(C)c1cc(C(C)C)c(P2(=O)CC3C(Cl)(Cl)C3(C)C2)c(C(C)C)c1` (centres undefined), the GI50 is 4.2 µM (inactive) in the assay with HL-60; 4.71 µM (inactive) with CAKI-1; 7.31 µM (inactive) in the assay with SF-295; 8.04 µM (inactive) in the assay on UACC-62; 14 µM (inactive) with SF-539; 8.71 µM (inactive) in the assay on M14. The GI50 in the assay on SK-OV-3 was 16.4 µM (inactive); in the assay with BT-549, 13.7 µM (inactive); with UO-31, 1.86 µM (inactive); in the assay on KM12, 10.6 µM (inactive); in the assay with T47D, 6.44 µM (inactive); in the assay on PC-3 it was 6.7 µM (inactive). The GI50 was 11.3 µM (inactive) with SK-MEL-2; 4.94 µM (inactive) in the assay on OVCAR-4; 17.5 µM (inactive) in the assay on Malme-3M; 13.4 µM (inactive) in the assay on HCC 2998; 11.5 µM (inactive) with NCI-H460; 7.96 µM (inactive) in the assay on UACC-257. Also, the GI50 with K562 was 8.95 µM (inactive).
For `Cc1c(Cl)cc(C(C)(C)C)c(O)c1Cc1c(C)c(Cl)cc(C(C)(C)C)c1O`, the GI50 in the assay with HL-60 is 1.17 µM (inactive); with CAKI-1 it was 1.32 µM (inactive); in the assay on SF-295 it was 2.07 µM (inactive); in the assay with UACC-62, 1.62 µM (inactive); in the assay on SF-539, 1.97 µM (inactive); in the assay on M14, 2.42 µM (inactive). Also, the GI50 with SK-OV-3 was 2.98 µM (inactive); in the assay on BT-549, 2.81 µM (inactive); with UO-31 it was 1.82 µM (inactive); with KM12, 1.44 µM (inactive); in the assay on T47D it was 0.562 µM (active); in the assay with PC-3 it was 1.64 µM (inactive). Besides, the GI50 was 1.73 µM (inactive) in the assay with SK-MEL-2; 1.26 µM (inactive) with OVCAR-4; 0.406 µM (active) in the assay with Malme-3M; 0.796 µM (active) in the assay with HCC 2998; 0.634 µM (active) in the assay with NCI-H460; 1.36 µM (inactive) in the assay on UACC-257. The concentration for 50% growth inhibition (GI50) in the assay on K562 is 0.752 µM (active).
Take `N#C/C(=C\c1ccc2ccccc2c1)c1ccccc1`: the GI50 in the assay with CAKI-1 is 17.8 µM (inactive); in the assay on SF-295 it was 20.2 µM (inactive); in the assay with UACC-62, 13.1 µM (inactive); with SF-539, 17.3 µM (inactive); in the assay with M14, 19.5 µM (inactive); in the assay with DLD-1, 25.7 µM (inactive). Moreover, the GI50 in the assay with SK-OV-3 is 26.3 µM (inactive); in the assay on UO-31, 25.5 µM (inactive); in the assay on KM12, 27.7 µM (inactive); with SK-MEL-2, 25.8 µM (inactive); in the assay on OVCAR-4 it was 29.6 µM (inactive); in the assay with HCC 2998 it was 21.7 µM (inactive). Also, the GI50 in the assay on NCI-H460 is 17.1 µM (inactive); in the assay on UACC-257, 25.5 µM (inactive).
As for `O=C(O[C@@H](/C=C/c1ccccc1)P1(=O)N(Cc2ccccc2)[C@@H]2CCCC[C@H]2N1Cc1ccccc1)c1ccccc1`, the GI50 was 2.94 µM (inactive) in the assay with HL-60; 1.48 µM (inactive) with CAKI-1; 3.55 µM (inactive) in the assay with SF-295; 3.8 µM (inactive) in the assay on UACC-62; 4.68 µM (inactive) in the assay on SF-539; 3.66 µM (inactive) in the assay with M14. For the same molecule, the GI50 was 5.92 µM (inactive) in the assay with SK-OV-3; 4.91 µM (inactive) in the assay with BT-549; 3.4 µM (inactive) with UO-31; 2.83 µM (inactive) in the assay with KM12; 0.0984 µM (active) in the assay on T47D; 3.31 µM (inactive) in the assay with PC-3. Further, the GI50 is 2.38 µM (inactive) with SK-MEL-2; 1.88 µM (inactive) in the assay with OVCAR-4; 3.6 µM (inactive) with Malme-3M; 7.93 µM (inactive) in the assay with HCC 2998; 3.53 µM (inactive) with NCI-H460; 8.75 µM (inactive) in the assay with UACC-257. Besides, the GI50 in the assay with K562 was 3.25 µM (inactive).
For `COc1ccc([C@H]2CC(=O)NCCCCN2)cc1`, the GI50 in the assay on CAKI-1, in the assay with SF-295, in the assay on UACC-62, in the assay with SF-539, in the assay with M14 and in the assay on DLD-1 was > 100 µM (inactive) throughout. Besides, the GI50 in the assay with SK-OV-3, in the assay on UO-31, in the assay with KM12, in the assay with SK-MEL-2, with OVCAR-4 and in the assay with Malme-3M was > 100 µM (inactive) throughout. The GI50 in the assay on NCI-H460, in the assay on UACC-257 and with K562 was > 100 µM (inactive) in each case.
For the molecule `COc1nc(NC2OC(COC(C)=O)C(OC(C)=O)C(OC(C)=O)C2OC(C)=O)c(-c2csc(N)n2)c(=O)n1C` (centres undefined), the GI50 in the assay with CAKI-1 is 32.3 µM (inactive); with SF-295, 68.4 µM (inactive); with UACC-62, 33.7 µM (inactive); in the assay with SF-539, 54.2 µM (inactive); in the assay on M14, 78.7 µM (inactive); in the assay on DLD-1, 52.7 µM (inactive). The GI50 was > 100 µM (inactive) in the assay on SK-OV-3; 52.8 µM (inactive) in the assay on UO-31; > 100 µM (inactive) in the assay on KM12; 21.5 µM (inactive) in the assay with SK-MEL-2; 19.4 µM (inactive) with OVCAR-4; 26.8 µM (inactive) in the assay on Malme-3M. The GI50 with NCI-H460 is 73.1 µM (inactive); in the assay with UACC-257 it was 58.3 µM (inactive); in the assay with K562 it was 60.1 µM (inactive).
As for `O=P(O)(O)CC1OC(CO)C(O)C1O` (centres undefined), the GI50 with HL-60, in the assay with CAKI-1, in the assay on SF-295, in the assay with UACC-62, with SF-539 and in the assay on M14 was > 100 µM (inactive) each time. The GI50 in the assay on SK-OV-3, in the assay on BT-549, with UO-31, with KM12, in the assay with T47D and with PC-3 was > 100 µM (inactive) each time. For the same molecule, the GI50 in the assay with SK-MEL-2, in the assay on OVCAR-4, in the assay on Malme-3M, with HCC 2998, in the assay on NCI-H460 and in the assay with UACC-257 was > 100 µM (inactive) in each case. Besides, the GI50 in the assay on K562 was > 100 µM (inactive).
In the case of `CC(C)[C@H]1CO[C@@H]2O[C@H](C)CC(=O)N21`, the GI50 with HL-60, with CAKI-1, with SF-295, with UACC-62, in the assay on SF-539 and in the assay with M14 was > 100 µM (inactive) each time. In addition, the GI50 in the assay with DLD-1, with SK-OV-3, in the assay with UO-31, in the assay on KM12, in the assay on SK-MEL-2 and with OVCAR-4 was > 100 µM (inactive) throughout. Moreover, the GI50 in the assay on Malme-3M, in the assay on NCI-H460, with UACC-257 and in the assay on K562 was > 100 µM (inactive) throughout.
